Data reported in patent US10364256B2 (GlaxoSmithKline Intellectual Property Development Limited, priority 2015, dated 2019).
Like-named read-outs stand apart in the source and are kept apart here.

Experiments:
[1] = tested on: NQO1 specific enzyme activity in BEAS-2B cells (marker for NRF2 activation); experiment: BEAS-2B NQO1 MTT Assay; format: cell-based; settings: Homo sapiens, compound incubated 48 hours, read-out: EC50 (NQO1 specific enzyme activity induction)
Method in brief: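 BEAS-2B cells treated with compound for 48 h at 37 °C, then lysed; NQO1 activity in lysates measured kinetically by MTT reduction at A570 over 30 min. pEC50 from 3-parameter fit of ΔOD/min versus log concentration; lysate also taken for Cell Titer Glo.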

[2] = molecular target: T1, full length Keap1 protein / full length NRF2 protein (Homo sapiens, UniProt Q14145); experiment: NRF2-Keap1 TR-FRET Low Protein Assay; format: binding; settings: 1.25 nM Keap1 FlagHis and 2.5 nM biotin-NRF2 added
T1 construct: full length NRF2 protein and full length Keap1 protein (Keap1 exists a dimer) are used; His
T1 sequence (Q14145 whole entry): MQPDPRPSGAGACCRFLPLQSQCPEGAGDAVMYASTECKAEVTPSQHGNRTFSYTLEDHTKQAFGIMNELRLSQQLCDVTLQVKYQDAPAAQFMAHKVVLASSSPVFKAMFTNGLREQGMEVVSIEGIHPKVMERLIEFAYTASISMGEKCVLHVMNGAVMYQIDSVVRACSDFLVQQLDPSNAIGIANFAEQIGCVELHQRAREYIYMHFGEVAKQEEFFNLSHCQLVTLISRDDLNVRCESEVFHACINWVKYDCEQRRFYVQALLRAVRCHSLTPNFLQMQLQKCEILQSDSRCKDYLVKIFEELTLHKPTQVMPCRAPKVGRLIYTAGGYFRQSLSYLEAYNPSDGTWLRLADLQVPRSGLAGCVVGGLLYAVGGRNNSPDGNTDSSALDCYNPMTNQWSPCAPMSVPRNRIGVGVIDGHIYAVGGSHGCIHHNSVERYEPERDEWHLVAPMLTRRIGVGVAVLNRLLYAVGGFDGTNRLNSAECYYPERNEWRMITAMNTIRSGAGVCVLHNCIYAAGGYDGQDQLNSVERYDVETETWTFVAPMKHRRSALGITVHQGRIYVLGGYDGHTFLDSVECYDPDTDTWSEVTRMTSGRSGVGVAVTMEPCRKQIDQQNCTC
Method in brief: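 Flag-tagged full-length Keap1 was preincubated with compound (3-fold series) for 2.25 h at 37 °C in Tris pH 8.0/MgCl2/NaCl/BSA/DTT/CHAPS. Biotin-Avi-NRF2 (added at 2.5 nM) was then bound for 1.25 h at 4 °C. Eu-streptavidin/anti-Flag-APC TR-FRET (665/615 nm) was read after 1 h at RT, and pIC50 came from a four-parameter fit.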

Structure (SMILES)	EC50 ([1]; BEAS-2B, 48 h)	IC50 [2]	EC50 [1]
CCC[C@@H]1CCCCN1C(=O)c1cccc(-c2cccc(-n3ncc(C(=O)O)c3[C@@H]3C[C@H]3c3cn(C)nn3)c2)c1 [Example 51h, 5-[(1R,2R)-2-(1-methyl-1H-1,2,3-triazol-4-yl)cyclopropyl]-1-(3-{3-[(2R)-2-propylpiperidine-1-carbonyl]phenyl}phenyl)-1H-pyrazole-4-carboxylic Acid]	10 to 100 nM	< 10 nM	–
CCC[C@@H]1CCCCN1C(=O)c1cccc(-c2cccc(-n3ncc(C(=O)O)c3C3CC3c3cn(C)nn3)c2)c1F (stereo partly drawn) [Example 57, 1-(2′-Fluoro-3′-((R)-2-propylpiperidine-1-carbonyl)-[1,1′-biphenyl]-3-yl)-5-(2-(1-methyl-1H-1,2,3-triazol-4-yl)cyclopropyl)-1H-pyrazole-4-carboxylic Acid]	10 to 100 nM	< 10 nM	–
O=C(O)c1cnn(-c2cccc(-c3cccc(-n4ncc5c4CCC5)c3)c2)c1C1CC1 [Example 61, 5-Cyclopropyl-1-(3′-(5,6-dihydrocyclopenta[c]pyrazol-1(4H)-yl)-[1,1′-biphenyl]-3-yl)-1H-pyrazole-4-carboxylic Acid]	100 to 1000 nM	1000 to 10000 nM	–
O=C(O)c1cnn(-c2cccc(-c3cccc(-n4ncc5c4CCCC5)c3)c2)c1C1CC1 [Example 62, 5-cyclopropyl-1-(3′-(4,5,6,7-tetrahydro-1H-indazol-1-yl)-[1,1′-biphenyl]-3-yl)-1H-pyrazole-4-carboxylic Acid]	100 to 1000 nM	100 to 1000 nM	–
CCC[C@@H]1CCCCN1C(=O)c1cccc(-c2cccc(-n3ncc(C(=O)O)c3C3CC3(F)F)c2)c1 (stereo partly drawn) [Example 67, 5-(2,2-Difluorocyclopropyl)-1-(3′-((R)-2-propylpiperidine-1-carbonyl)-[1,1′-biphenyl]-3-yl)-1H-pyrazole-4-carboxylic Acid]	100 to 1000 nM	10 to 100 nM	–
CC[C@@H]1CN(Cc2cccc(-c3cccc(-n4ncc(C(=O)O)c4C4CC4c4cn(C)nn4)c3)c2)Cc2ccccc2O1 (stereo partly drawn) [Example 129, 1-(3′-(((R)-2-ethyl-2,3-dihydrobenzo[f][1,4]oxazepin-4(5H)-yl)methyl)-[1,1′-biphenyl]-3-yl)-5-(2-(1-methyl-1H-1,2,3-triazol-4-yl)cyclopropyl)-1H-pyrazole-4-carboxylic Acid]	–	< 10 nM	100 to 1000 nM
CCC[C@@H]1CCCCN1C(=O)c1cccc(-c2cc(C)cc(-n3ncc(C(=O)O)c3C3CC3c3cn(C)nn3)c2)c1 (stereo partly drawn) [Example 154, 5-(2-(1-Methyl-1H-1,2,3-triazol-4-yl)cyclopropyl)-1-(5-methyl-3′-((R)-2-propylpiperidine-1-carbonyl)-[1,1′-biphenyl]-3-yl)-1H-pyrazole-4-carboxylic Acid]	100 to 1000 nM	< 10 nM	–
CCC[C@@H]1CCCCN1C(=O)c1cccc(-c2cc(Cl)cc(-n3ncc(C(=O)O)c3C3CC3c3cn(C)nn3)c2)c1 (stereo partly drawn) [Example 160, 1-(5-Chloro-3′-((R)-2-propylpiperidine-1-carbonyl)-[1,1′-biphenyl]-3-yl)-5-(2-(1-methyl-1H-1,2,3-triazol-4-yl)cyclopropyl)-1H-pyrazole-4-carboxylic Acid Compound with 2,2,2-trifluoroacetic Acid (1:1)]	100 to 1000 nM	< 10 nM	–
CC(CC1CCCCC1)Oc1cccc(-c2cccc(-n3ncc(C(=O)O)c3C3CC3)c2)c1 (centres unmarked) [Example 161, 1-(3′-((1-Cyclohexylpropan-2-yl)oxy)-[1,1′-biphenyl]-3-yl)-5-cyclopropyl-1H-pyrazole-4-carboxylic Acid]	–	1000 to 10000 nM	100 to 1000 nM
CC(Oc1cccc(-c2cccc(-n3ncc(C(=O)O)c3[C@@H]3C[C@H]3c3cn(C)nn3)c2)c1)C1CCCCC1 (stereo partly drawn) [Example 163, 1-(3′-(1-Cyclohexylethoxy)-[1,1′-biphenyl]-3-yl)-5-((1R,2R)-2-(1-methyl-1H-1,2,3-triazol-4-yl)cyclopropyl)-1H-pyrazole-4-carboxylic acid]	10 to 100 nM	100 to 1000 nM	–
Cn1cc(C2CC2c2c(C(=O)O)cnn2-c2cccc(-c3cccc(OCC4CCCCC4)c3)c2)nn1 (centres unmarked) [Example 164, 1-(3′-(Cyclohexylmethoxy)-[1,1′-biphenyl]-3-yl)-5-(2-(1-methyl-1H-1,2,3-triazol-4-yl)cyclopropyl)-1H-pyrazole-4-carboxylic acid]	–	10 to 100 nM	10 to 100 nM
CC(Oc1cccc(-c2cccc(-n3ncc(C(=O)O)c3[C@H]3C[C@@H]3c3cn(C)nn3)c2)c1)C1CCCCC1 (stereo partly drawn) [Example 165, 1-(3′-(1-Cyclohexylethoxy)-[1,1′-biphenyl]-3-yl)-5-((1S,2S)-2-(1-methyl-1H-1,2,3-triazol-4-yl)cyclopropyl)-1H-pyrazole-4-carboxylic acid]	1 to 10 nM	< 10 nM	–
Cn1cc(C2CC2c2c(C(=O)O)cnn2-c2cccc(-c3cccc(OCC4CCN(C(=O)OC(C)(C)C)CC4)c3)c2)nn1 (centres unmarked) [Example 167, 1-(3′-((1-(tert-Butoxycarbonyl)piperidin-4-yl)methoxy)-[1,1′-biphenyl]-3-yl)-5-(2-(1-methyl-1H-1,2,3-triazol-4-yl)cyclopropyl)-1H-pyrazole-4-carboxylic acid]	–	10 to 100 nM	100 to 1000 nM
Cn1cc([C@@H]2C[C@H]2c2c(C(=O)O)cnn2-c2cccc(-c3cccc(OCC4CCCCC4)c3)c2)nn1 [Example 171, 1-(3′-(Cyclohexylmethoxy)-[1,1′-biphenyl]-3-yl)-5-((1R,2R)-2-(1-methyl-1H-1,2,3-triazol-4-yl)cyclopropyl)-1H-pyrazole-4-carboxylic acid]	–	10 to 100 nM	10 to 100 nM
Cn1cc(C2CC2c2c(C(=O)O)cnn2-c2cccc(-c3cccc(SCC4CCCCC4)c3)c2)nn1 (centres unmarked) [Example 179, 1-(3′-((Cyclohexylmethyl)thio)-[1,1′-biphenyl]-3-yl)-5-(2-(1-methyl-1H-1,2,3-triazol-4-yl)cyclopropyl)-1H-pyrazole-4-carboxylic acid]	–	10 to 100 nM	1 to 10 nM
COC(c1cccc(-c2cccc(-n3ncc(C(=O)O)c3C3CC3c3cn(C)nn3)c2)c1)C1CCCC1 (centres unmarked) [Example 183, 1-(3′-(Cyclopentyl(methoxy)methyl)-[1,1′-biphenyl]-3-yl)-5-(2-(1-methyl-1H-1,2,3-triazol-4-yl)cyclopropyl)-1H-pyrazole-4-carboxylic acid]	–	10 to 100 nM	100 to 1000 nM
Cc1nn(-c2cccc(-c3cccc(OCC4CCCCC4)c3)c2)c(C2CC2c2cn(C)nn2)c1C(=O)O (centres unmarked) [Example 188, 1-(3′-(cyclohexylmethoxy)-[1,1′-biphenyl]-3-yl)-3-methyl-5-(2-(1-methyl-1H-1,2,3-triazol-4-yl)cyclopropyl)-1H-pyrazole-4-carboxylic Acid]	–	1000 to 10000 nM	100 to 1000 nM
CCC[C@@H]1CCCCN1C(=O)c1cccc(-c2cccc(-n3ncc(C(=O)O)c3C3CC3c3cn(C)nn3)n2)c1 (stereo partly drawn) [Example 196, 5-(2-(1-Methyl-1H-1,2,3-triazol-4-yl)cyclopropyl)-1-(6-(3-((R)-2-propylpiperidine-1-carbonyl)phenyl)pyridin-2-yl)-1H-pyrazole-4-carboxylic Acid]	100 to 1000 nM	< 10 nM	–
CCC[C@@H]1CCCCN1C(=O)c1cncc(-c2cccc(-n3ncc(C(=O)O)c3C3CC3c3cn(C)nn3)c2)c1 (stereo partly drawn) [Example 197, 5-(2-(1-Methyl-1H-1,2,3-triazol-4-yl)cyclopropyl)-1-(3-(5-((R)-2-propylpiperidine-1-carbonyl)pyridin-3-yl)phenyl)-1H-pyrazole-4-carboxylic acid]	1000 to 10000 nM	< 10 nM	–
